# Source: US7939057B2, “Methods and compositions for modulating the mobilization of stem cells” (Mount Sinai School of Medicine, priority 2006, dated 2011)
# Structures can show the parent of a compound that is named as a salt. Marks after values point to notes of the source that are not given here.
# Tests used:
# [1] = system: hematopoietic stem and progenitor cells (HSPCs); test: G-CSF-induced mobilization of hematopoietic progenitors (circulating CFU-C); format: in vivo, mice; details: for G-CSF-induced mobilization with clenbuterol: clenbuterol 2 mg/kg/day i.p. two days before and during G-CSF
# Procedure: (§1) To induce HSPC mobilization, mice were injected with recombinant human G-CSF (Filgrastim, Amgen, Thousand Oaks, Calif., 250 μg/kg/day, every 12 hours, 8 divided doses, s.c.) in PBS supplemented with 0.1% endotoxin free bovine serum albumin (BSA) or fucoidan (Sigma; 2 doses of 100 mg/kg with 2 h interval, i.p.) in PBS. Blood was harvested 3 h (G-CSF) or 1 h (fucoidan). CFU-C assays were carried out as previously described (Katayama, Y., and Frenette, P. S. (2003). Galactocerebrosides are required postnatally for stromal-dependent bone marrow lymphopoiesis. Immunity 18, 789-800).
# A chronic guide cannula (1.0 mm) was implanted stereotaxically into the lateral ventricle (coordinates AP, −0.7 mm; DV, −2.4 mm; ML, 1.5 mm, from bregma). One week after implantation, mice received a reduced dose of G-CSF (25 μg/kg daily for 4 doses) either by ICV infusion (rate: 0.4 μL/min) or by s.c. injection.
# (§2) Newborn C57BL/6 mice were injected s.c. with 6OHDA (100 mg/kg, Sigma) or vehicle (saline) on postnatal days 2, 4, 6, 8 and 9. HSPC mobilization was induced at 3 weeks of age. For SNS disruption in adult C57BL6 mice, 4 week-old animals were injected i.p. with 2 doses of 6OHDA or vehicle, 100 mg/kg on day 0, 250 mg/kg on day 2, and G-CSF treatment was begun on day 5. For β-adrenergic receptor blockade, 4 week-old C57BL/6 mice were treated with propranolol (0.5 g/L in drinking water, Sigma) or control pure water for 3 weeks prior to mobilization. For rescue experiments, clenbuterol (2 mg/kg/day, i.p.) was injected starting day −2 prior to and continued during G-CSF treatment.
# [2] = system: catecholaminergic neurons; test: Tissue catecholamines after 6-hydroxydopamine treatment (HPLC, heart); format: in vivo, C57BL/6 mice; details: 5 week-old C57BL6 mice treated perinatally with 6OHDA, n=3, p<0.05 vs PBS
# Procedure: as §2
# Hearts from 5 week-old C57BL6 mice treated perinatally with 6-hydroxydopamine (6OHDA) or PBS control were homogenized in 0.1 M trichloroacetic acid containing 10 mM sodium acetate, 0.1 mM EDTA, 1 μM isoproterenol (as internal standard), and 10.5% methanol (pH 3.8). Catecholamine levels were determined by HPLC at the Neurochemistry Core Lab, Vanderbilt University's Center for Molecular Neuroscience research (Nashville, Tenn.). * p<0.05 compared with PBS control. n=3 mice.
# [3] = system: hematopoietic progenitor; test: AMD3100-induced hematopoietic progenitor mobilization (stem cell egress); format: in vivo, C57BL/6 mice
# Procedure: Studies were done to determine the effect of destruction of dopaminergic and noradrenergic neurons on stem cell egress. In these studies, newborn C57BL/6 mice were injected subcutaneously with 6OHDA (100 mg/kg, Sigma) or vehicle (normal saline) on postnatal days 2, 4, 6, 8, and 9. Hematopoietic progenitor mobilization was induced at 34 weeks of age, by subcutaneous injection of AMD3100 (5 mg/kg) in normal saline. Peripheral blood was harvested retroorbitally one hour post injection. P-value was calculated using two-tailed Student's t-test assuming unequal variances.
# Studies were done to determine the effect of the beta agonist clenbuterol on stem cell egress. In this study, all drugs were dissolved in normal saline (0.9% w/v NaCl), with a delivery volume of 10 μL/g body mass. 10 μl/g saline i.p. or 2 mg/kg clenbuterol i.p. were given to adult (8-10 week old) C57BL6 mice 1 hour prior to hematopoietic progenitor mobilization induced by […] s.c. Peripheral blood was harvested retroorbitally one hour post AMD3100 injection. P-value was calculated using two-tailed Student's t-test assuming unequal variances.
# [4] = system: circulating tumor cells; details: AMD3100 5 mg/Kg, blood 1 h later; planned experiment
# Source text: Luciferase expression will allow us to monitor distant metastases whereas GFP expression will permit to quantify the number of circulating tumor cells under baseline conditions and following treatment with stem cell “mobilizers”. Firstly, we will evaluate the effect of CXCR4 inhibition, using the specific antagonist AMD3100 on circulating tumor cells. Blood from NOD/SCID mice bearing tumors (day 35 for PC3lucGFP, day 15 for PC3MlucGFP) will be harvested at baseline to evaluate steady-state levels of circulating tumor cells. Mice will then be injected with AMD3100 at a dose of 5 mg/Kg and blood will be harvested 1 h later to evaluate the number of circulating tumor cells. […] To quantify the absolute counts of tumor cells, we will determine the number of circulating nucleated cells using an automatic cell counter (available in the PI's laboratory), and the proportion of GFP+ cells will be evaluated by flow cytometry in which a large sampling (>500,000 events) will be acquired owing to the rarity of circulating tumor cells.
# [5] = system: norepinephrine; test: Norepinephrine turnover in hearts after AMPT; format: in vivo, mice; details: AMPT 300 mg/kg, mean±sem, n=4-5
# Procedure: FIG. 11. Norepinephine turnover in tissues following G-CSF administration in Cgt littermates. • To assess turnover rate, Cgt were administered the catecholamine synthesis inhibitor α-methyl-p-tyrosine (AMPT, 300 mg/kg, Sigma) or were left untreated. Animals were sacrificed 4 h after AMPT injection. Hearts were rapidly removed, weighed, frozen in liquid nitrogen and stored at −80° C. for norepinephrine measurements. NE levels were determined by HPLC at the Neurochemistry Core Lab, Vanderbilt University's Center for Molecular Neuroscience Research (Nashville, Tenn.). Under steady-state conditions, the decline of norepinephrine (NE) reflects the synthesis rate and the sympathetic tone. n=4-5 mice per group; * p<0.05.
# Decline in tissue levels of norepinephrine obeys first order kinetics (Brodie, B. B., Costa, E., Dlabac, A., Neff, N. H., and Smookler, H. H. (1966). Application of steady state kinetics to the estimation of synthesis rate and turnover time of tissue catecholamines. J Pharmacol Exp Ther 154, 493-498): […]
# [6] = system: SDF-1; test: SDF-1 secretion by stromal cell line MS-5 (ELISA); format: cell-based; details: 72 h exposure of MS-5 cells
# Source text: Studies were also done to determine the effect of norepinephrine or a beta receptor agonist on SDF-1 secretion by a stromal cell line and to determine if there is a correlation with stem cell egress. […] This corresponds with an increase in the stem cell egress.
# [7] = system: hematopoietic stem and progenitor cells (HSPCs); test: Fucoidan-induced mobilization of hematopoietic progenitors (circulating CFU-C); format: in vivo; details: Cgt−/− mice; 2 doses of 100 mg/kg i.p.
# Procedure: as §1
compound,measurement,setting,value
"NCCc1cc(O)c(O)cc1O [6OHDA, 6-hydroxydopamine]",G-CSF-elicited mobilization,[1]; 6OHDA-treated adult C57BL/6 mice,significantly reduced
same,number of HSPCs mobilized by G-CSF,[1]; perinatally 6OHDA-lesioned mice vs vehicle littermates,dramatically reduced
same,baseline CFU-C counts per bone,"[1]; perinatally 6OHDA-treated mice, steady-state BM",did not alter
same,Dopamine,[2],10 ± 10* pmol/mg tissue
same,Epinephrine,[2],41 ± 20* pmol/mg tissue
same,Norepinephrine,[2],49 ± 10* pmol/mg tissue
same,stem cell egress induced by AMD3100,"[3]; C57BL/6 mice given 6OHDA 100 mg/kg s.c. postnatal days 2, 4, 6, 8, 9, AMD3100 5 mg/kg s.c. at 34 weeks of age, blood one hour post injection",decreased in a dose dependent manner
"c1cc(CN2CCCNCCNCCCNCC2)ccc1CN1CCCNCCNCCCNCC1 [AMD3100, 1,1′-[1,4-phenylene-bis(methylene)]-bis(1,4,8,11-tetra-azacyclotetradecane) octahydrochloride dehydrate]",number of circulating tumor cells,[4],will increase the number of circulating tumor cells
"CC(N)(Cc1ccc(O)cc1)C(=O)O (stereo not drawn) [AMPT, α-methyl-p-tyrosine]","Level after AMPT inhibition, 4 h (norepinephrine, heart)","[5]; Cgt+/+, Cgt+/− mice",198 ± 38 pg/mg wet weight
same,"Level after AMPT inhibition, 4 h (norepinephrine, heart)",[5]; Cgt−/− mice,335 ± 32 pg/mg wet weight
CC(C)NCC(O)c1ccc(O)c(O)c1 (stereo not drawn) [Isoproterenol],SDF-1 secretion,[6],decreased in a dose-dependent manner
CC(C)(C)NCC(O)c1cc(Cl)c(N)c(Cl)c1 (stereo not drawn) [clenbuterol],G-CSF-induced mobilization with clenbuterol,[1]; Dbh+/− controls,further enhanced mobilization
same,G-CSF-induced mobilization with clenbuterol,[1]; Dbh−/− mice,rescued in part the mobilization defect
same,mobilization by clenbuterol by itself,"[1]; same dose schedule, no G-CSF, data not shown",did not trigger mobilization
same,stem cell egress induced by AMD3100 with clenbuterol,"[3]; adult C57BL6 mice, clenbuterol 2 mg/kg i.p. 1 hour prior to AMD3100 s.c., blood one hour post AMD3100",boost stem cell egress in a dose dependent manner
NC[C@H](O)c1ccc(O)c(O)c1 [norepinephrine],SDF-1 secretion,[6],decreased in a dose-dependent manner
"CC(C)NCC(O)COc1cccc2ccccc12 (stereo not drawn) [propranolol, 1-[(1-Methylethyl)amino]-3-(1-naphthalenyloxy)-2-propanol]",reduction of the number of HSPCs elicited by G-CSF,[1]; C57BL6 mice treated for three weeks with propranolol (0.5 g/L in drinking water),> 20%
fucoidan,CFU-C mobilization by fucoidan,[7],not mobilized
